Source: ChEMBL document CHEMBL4190307, “Design, synthesis and biological evaluation of novel coumarin-N-benzyl pyridinium hybrids as multi-target agents for the treatment of Alzheimer's disease” (Eur J Med Chem, 2017)
The source made the active and inactive calls. The calls are words filed in the database; no cut-off is given here.

How the values were obtained:
[1] = target: Acetylcholinesterase (Electrophorus electricus, UniProt O42275); experiment: Inhibition of electric eel AChE using acetylthiocholine iodide as substrate preincubated for 6 mins followed by substrate addition measured up to 180 secs by Ellman's method
Acetylcholinesterase (Electrophorus electricus, UniProt O42275), sequence (O42275 whole entry): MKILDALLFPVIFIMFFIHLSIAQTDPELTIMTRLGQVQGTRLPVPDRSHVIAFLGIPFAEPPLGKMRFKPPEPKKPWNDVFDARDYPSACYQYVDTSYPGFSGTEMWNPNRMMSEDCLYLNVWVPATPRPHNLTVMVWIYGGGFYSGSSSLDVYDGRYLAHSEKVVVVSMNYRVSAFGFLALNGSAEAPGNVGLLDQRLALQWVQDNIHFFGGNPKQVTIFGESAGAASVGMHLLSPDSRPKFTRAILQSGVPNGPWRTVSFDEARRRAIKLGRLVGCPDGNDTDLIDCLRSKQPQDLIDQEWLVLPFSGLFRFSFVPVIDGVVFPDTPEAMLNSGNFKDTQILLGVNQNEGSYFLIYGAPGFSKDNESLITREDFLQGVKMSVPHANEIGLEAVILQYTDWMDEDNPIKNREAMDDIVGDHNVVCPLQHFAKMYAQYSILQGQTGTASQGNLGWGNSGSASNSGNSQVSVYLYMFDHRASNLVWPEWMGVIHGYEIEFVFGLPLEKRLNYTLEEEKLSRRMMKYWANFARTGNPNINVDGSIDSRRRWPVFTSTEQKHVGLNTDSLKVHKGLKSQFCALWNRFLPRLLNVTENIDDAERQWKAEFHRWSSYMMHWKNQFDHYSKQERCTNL

[2] = target: Cholinesterase (Equus caballus, UniProt P81908); experiment: Inhibition of equine serum BuChE using S-butyrylthiocholine iodide as substrate preincubated for 6 mins followed by substrate addition measured up to 180 secs by Ellman's method
Cholinesterase (Equus caballus, UniProt P81908), sequence (P81908 whole entry): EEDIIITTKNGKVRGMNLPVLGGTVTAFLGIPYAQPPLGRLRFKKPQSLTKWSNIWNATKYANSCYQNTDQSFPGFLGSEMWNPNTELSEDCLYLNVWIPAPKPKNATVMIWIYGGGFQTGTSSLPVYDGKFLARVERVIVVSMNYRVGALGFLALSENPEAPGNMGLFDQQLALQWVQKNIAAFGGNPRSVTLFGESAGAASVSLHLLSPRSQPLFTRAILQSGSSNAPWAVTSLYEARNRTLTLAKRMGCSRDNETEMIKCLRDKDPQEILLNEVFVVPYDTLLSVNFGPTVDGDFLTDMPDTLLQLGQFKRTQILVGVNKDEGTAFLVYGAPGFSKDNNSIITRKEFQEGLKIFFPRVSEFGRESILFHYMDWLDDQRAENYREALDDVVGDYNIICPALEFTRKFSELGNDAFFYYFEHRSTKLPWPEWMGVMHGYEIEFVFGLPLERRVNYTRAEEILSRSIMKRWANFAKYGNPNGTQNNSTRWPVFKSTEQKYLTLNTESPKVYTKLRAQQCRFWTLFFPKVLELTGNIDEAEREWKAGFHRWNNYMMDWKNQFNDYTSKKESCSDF

[3] = target: Amyloid-beta precursor protein (Homo sapiens) (UniProt P05067); experiment: Inhibition of self-induced amyloid beta (1 to 42) (unknown origin) aggregation at 20 uM after 46 to 48 hrs by thioflavin T-based fluorescence assay relative to control
Amyloid-beta precursor protein (Homo sapiens), sequence (P05067 whole entry): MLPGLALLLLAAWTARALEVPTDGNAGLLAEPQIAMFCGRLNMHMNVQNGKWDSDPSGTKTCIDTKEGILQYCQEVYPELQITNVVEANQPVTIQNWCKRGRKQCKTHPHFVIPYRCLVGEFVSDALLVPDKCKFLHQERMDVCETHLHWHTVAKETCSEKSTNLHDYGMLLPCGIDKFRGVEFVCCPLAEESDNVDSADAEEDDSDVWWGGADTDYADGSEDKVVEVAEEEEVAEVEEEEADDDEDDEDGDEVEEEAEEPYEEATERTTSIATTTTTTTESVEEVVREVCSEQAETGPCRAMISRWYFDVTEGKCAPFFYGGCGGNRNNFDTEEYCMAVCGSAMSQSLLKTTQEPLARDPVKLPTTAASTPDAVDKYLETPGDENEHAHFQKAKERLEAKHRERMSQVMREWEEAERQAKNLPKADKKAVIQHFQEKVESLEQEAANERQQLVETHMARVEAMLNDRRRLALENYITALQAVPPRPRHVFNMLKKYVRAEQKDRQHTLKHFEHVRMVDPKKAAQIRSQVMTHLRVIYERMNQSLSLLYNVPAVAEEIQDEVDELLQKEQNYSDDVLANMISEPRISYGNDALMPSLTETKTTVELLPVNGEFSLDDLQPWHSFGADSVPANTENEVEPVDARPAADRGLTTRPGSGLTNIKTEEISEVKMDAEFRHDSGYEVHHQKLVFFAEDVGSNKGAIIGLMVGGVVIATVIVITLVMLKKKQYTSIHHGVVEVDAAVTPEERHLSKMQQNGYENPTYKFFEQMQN

[4] = test system: PC-12; experiment: Cytotoxicity against rat PC12 cells assessed as reduction in cell viability at 100 uM after 24 hrs by MTT assay relative to control; format: cell-based; settings: pc-12, 24 h
[5] = target: Acetylcholinesterase (Homo sapiens, UniProt P22303); experiment: Inhibition of human AChE using acetylthiocholine iodide as substrate preincubated for 6 mins followed by substrate addition measured up to 180 secs by Ellman's method
Acetylcholinesterase (Homo sapiens, UniProt P22303), sequence (P22303 whole entry): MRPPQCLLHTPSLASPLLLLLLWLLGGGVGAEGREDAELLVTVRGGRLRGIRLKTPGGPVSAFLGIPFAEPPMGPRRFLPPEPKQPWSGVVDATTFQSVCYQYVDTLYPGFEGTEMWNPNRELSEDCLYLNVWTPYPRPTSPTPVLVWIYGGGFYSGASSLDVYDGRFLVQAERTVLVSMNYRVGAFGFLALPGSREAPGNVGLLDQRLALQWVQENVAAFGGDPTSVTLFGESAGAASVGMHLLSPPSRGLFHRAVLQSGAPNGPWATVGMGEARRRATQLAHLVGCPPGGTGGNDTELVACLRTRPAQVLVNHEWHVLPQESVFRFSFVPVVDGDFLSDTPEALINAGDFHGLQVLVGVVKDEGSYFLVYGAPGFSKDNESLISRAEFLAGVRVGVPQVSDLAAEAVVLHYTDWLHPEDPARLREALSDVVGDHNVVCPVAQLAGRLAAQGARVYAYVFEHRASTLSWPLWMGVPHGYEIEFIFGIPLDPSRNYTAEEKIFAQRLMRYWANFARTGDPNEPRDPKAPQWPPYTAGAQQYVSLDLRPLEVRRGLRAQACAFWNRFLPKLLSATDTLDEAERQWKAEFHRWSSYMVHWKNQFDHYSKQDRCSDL

[6] = Selectivity index, ratio of IC50 for equine serum BuChE to IC50 for electric eel AChE
[7] = target: T1, Amine oxidase [flavin-containing] A (Homo sapiens, UniProt P21397); experiment: Inhibition of recombinant human MAOA at 10 uM using p-tyramine as substrate after 15 mins by resorufin dye-based fluorometric method relative to control; settings: 0.25 h
T1 sequence (P21397 whole entry): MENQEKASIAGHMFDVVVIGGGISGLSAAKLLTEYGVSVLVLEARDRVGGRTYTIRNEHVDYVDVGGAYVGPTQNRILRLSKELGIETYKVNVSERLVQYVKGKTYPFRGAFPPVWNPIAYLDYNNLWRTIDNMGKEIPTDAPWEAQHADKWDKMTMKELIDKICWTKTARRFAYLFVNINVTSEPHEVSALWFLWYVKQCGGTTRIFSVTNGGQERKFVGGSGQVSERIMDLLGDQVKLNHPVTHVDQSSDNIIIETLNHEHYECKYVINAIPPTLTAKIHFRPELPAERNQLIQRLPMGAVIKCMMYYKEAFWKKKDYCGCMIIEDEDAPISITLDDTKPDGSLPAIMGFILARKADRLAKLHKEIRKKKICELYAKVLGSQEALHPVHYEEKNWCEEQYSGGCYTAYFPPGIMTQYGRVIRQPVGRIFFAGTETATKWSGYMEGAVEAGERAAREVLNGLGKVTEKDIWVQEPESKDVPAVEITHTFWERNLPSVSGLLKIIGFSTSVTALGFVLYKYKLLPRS

[8] = target: T2, Amine oxidase [flavin-containing] B (Homo sapiens, UniProt P27338)
T2 sequence (P27338 whole entry): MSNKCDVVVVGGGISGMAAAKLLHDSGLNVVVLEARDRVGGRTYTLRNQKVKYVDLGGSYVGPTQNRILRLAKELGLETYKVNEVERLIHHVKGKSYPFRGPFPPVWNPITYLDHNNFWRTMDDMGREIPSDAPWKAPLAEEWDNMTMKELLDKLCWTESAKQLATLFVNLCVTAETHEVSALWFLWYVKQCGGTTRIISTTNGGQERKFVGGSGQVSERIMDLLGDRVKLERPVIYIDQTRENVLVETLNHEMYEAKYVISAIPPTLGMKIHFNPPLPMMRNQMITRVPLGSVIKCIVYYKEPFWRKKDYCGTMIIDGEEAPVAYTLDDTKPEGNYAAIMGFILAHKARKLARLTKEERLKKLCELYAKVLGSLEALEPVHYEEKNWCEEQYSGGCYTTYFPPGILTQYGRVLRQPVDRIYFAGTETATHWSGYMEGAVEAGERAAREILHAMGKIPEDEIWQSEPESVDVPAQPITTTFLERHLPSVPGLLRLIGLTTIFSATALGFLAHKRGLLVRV
Description: Inhibition of recombinant human MAOB using p-tyramine as substrate after 15 mins by Amplex Red dye-based fluorometric method

[9] = species: Homo sapiens; experiment: Selectivity index, ratio of IC50 for recombinant human MAOA to IC50 for recombinant human MAOB
[10] = species: Homo sapiens; experiment: Selectivity index, ratio of IC50 for human serum BuChE to IC50 for human AChE
[11] = target: Acetylcholinesterase (Electrophorus electricus) (UniProt O42275); experiment: Mixed type inhibition of electric eel AChE up to 80 nM using acetylthiocholine iodide as substrate preincubated for 6 mins followed by substrate addition measured up to 180 secs by Lineweaver-burk plot method
Acetylcholinesterase (Electrophorus electricus), sequence (O42275 24-633 limits assumed): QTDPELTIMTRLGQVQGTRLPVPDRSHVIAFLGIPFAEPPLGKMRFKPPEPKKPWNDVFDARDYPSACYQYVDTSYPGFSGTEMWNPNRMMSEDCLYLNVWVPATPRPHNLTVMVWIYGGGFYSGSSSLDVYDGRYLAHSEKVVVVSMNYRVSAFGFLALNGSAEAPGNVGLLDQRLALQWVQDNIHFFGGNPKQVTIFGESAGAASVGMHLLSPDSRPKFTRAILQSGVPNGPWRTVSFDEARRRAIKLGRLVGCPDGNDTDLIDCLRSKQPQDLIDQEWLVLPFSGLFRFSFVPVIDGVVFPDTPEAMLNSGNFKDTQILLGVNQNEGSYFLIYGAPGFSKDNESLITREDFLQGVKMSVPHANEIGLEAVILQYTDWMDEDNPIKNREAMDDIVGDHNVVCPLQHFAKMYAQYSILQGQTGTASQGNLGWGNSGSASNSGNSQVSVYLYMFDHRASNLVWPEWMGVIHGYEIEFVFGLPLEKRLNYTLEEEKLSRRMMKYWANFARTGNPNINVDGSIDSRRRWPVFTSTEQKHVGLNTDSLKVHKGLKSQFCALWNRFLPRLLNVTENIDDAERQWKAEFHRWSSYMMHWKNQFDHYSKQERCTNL

[12] = target: T2, Amine oxidase [flavin-containing] B; experiment: Reversible inhibition of recombinant human MAO-B assessed as enzyme activity recovery at 10 times IC50 using p-tyramine as substrate preincubated for 30 mins followed by 100 fold compound dilution by Amplex Red dye-based fluorometric method relative to control; design: scale not given: the % may be the effect or the level left
[13] = target: T2, Amine oxidase [flavin-containing] B; experiment: Reversible inhibition of recombinant human MAO-B assessed as enzyme activity recovery at 100 times IC50 using p-tyramine as substrate preincubated for 30 mins followed by 100 fold compound dilution by Amplex Red dye-based fluorometric method relative to control; design: scale not given: the % may be the effect or the level left
[14] = target: T2, Amine oxidase [flavin-containing] B; experiment: Competitive inhibition of recombinant human MAOB up to 3 uM using p-tyramine as substrate after 15 mins by Lineweaver-burk plot method; settings: 0.25 h
[15] = target: Acetylcholinesterase (Electrophorus electricus) (UniProt O42275); experiment: Potency index, ratio of IC50 for donepezil to IC50 for test compound for inhibition of electric eel AChE using acetylthiocholine iodide as substrate preincubated for 6 mins followed by substrate addition measured up to 180 secs by Ellman's method
[16] = target: Cholinesterase (Homo sapiens, UniProt P06276)
Cholinesterase (Homo sapiens, UniProt P06276), sequence (P06276 whole entry): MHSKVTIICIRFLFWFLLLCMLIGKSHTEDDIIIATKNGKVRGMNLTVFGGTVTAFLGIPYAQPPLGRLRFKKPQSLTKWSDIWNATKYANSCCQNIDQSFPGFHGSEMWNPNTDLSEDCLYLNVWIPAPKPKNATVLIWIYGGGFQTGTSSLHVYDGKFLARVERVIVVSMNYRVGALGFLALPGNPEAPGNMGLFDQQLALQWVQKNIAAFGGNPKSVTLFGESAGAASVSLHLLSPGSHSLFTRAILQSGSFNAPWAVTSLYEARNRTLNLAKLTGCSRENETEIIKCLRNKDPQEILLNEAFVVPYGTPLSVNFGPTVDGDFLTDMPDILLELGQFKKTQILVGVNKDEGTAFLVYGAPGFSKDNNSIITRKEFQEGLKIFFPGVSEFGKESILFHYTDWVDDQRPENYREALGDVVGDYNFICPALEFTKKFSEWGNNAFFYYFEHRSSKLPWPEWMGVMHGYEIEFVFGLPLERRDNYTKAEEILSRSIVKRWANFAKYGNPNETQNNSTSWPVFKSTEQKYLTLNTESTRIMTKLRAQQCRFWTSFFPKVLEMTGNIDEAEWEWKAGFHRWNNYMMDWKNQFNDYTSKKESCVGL
Description: Inhibition of human serum BuChE using S-butyrylthiocholine iodide as substrate preincubated for 6 mins followed by substrate addition measured up to 180 secs by Ellman's method

[17] = target: T1, Amine oxidase [flavin-containing] A; experiment: Inhibition of recombinant human MAOA using p-tyramine as substrate after 15 mins by Amplex Red dye-based fluorometric method
[18] = target: T2, Amine oxidase [flavin-containing] B; experiment: Inhibition of recombinant human MAOB at 10 uM using p-tyramine as substrate after 15 mins by resorufin dye-based fluorometric method relative to control; settings: 0.25 h

| SMILES | IC50 [1] [nM] | IC50 [2] [nM] | inhibition [3] [%] | Activity [4] [%] | IC50 [5] [nM] | Ratio IC50 [6] | inhibition at 10 µM [7] [%] | IC50 [8] [nM] | Ratio IC50 [9] | Ratio IC50 [10] | inhibition [11] | Activity [12] [%] | Activity [13] [%] | inhibition (INH) [14] | Ratio IC50 [15] | IC50 [16] [nM] | IC50 [17] [nM] | inhibition at 10 µM [18] [%] |
| --- | --- | --- | --- | --- | --- | --- | --- | --- | --- | --- | --- | --- | --- | --- | --- | --- | --- | --- |
| Cc1cc(=O)oc2cc(OCc3cc[n+](Cc4cccc([N+](=O)[O-])c4)cc3)ccc12.[Br-] | 38.3 | 4370 | 42.8 | 98.4 | 230 | – | – | – | – | – | – | – | – | – | – | – | – | – |
| Cc1cc(=O)oc2cc(OCc3cc[n+](Cc4cccc(Br)c4)cc3)ccc12.[Br-] | 63.2 | 4410 | 62.7 | 96.8 | 129 | 69.8 | 44.6 | 2190 | > 4.56 | > 77.8 | – | – | – | – | – | – | – | – |
| Cc1cccc(C[n+]2ccc(COc3ccc4c(C)cc(=O)oc4c3)cc2)c1.[Br-] | 37.3 | 2320 | 62.1 | 101.5 | 83.6 | 62.2 | 14.8 | 1570 | > 6.37 | > 120 | Active | 86 | 47 | Active | – | – | – | – |
| Cc1cc(=O)oc2cc(OCc3cc[n+](Cc4ccc(Br)cc4)cc3)ccc12.[Br-] | 119 | 4890 | 67.6 | 98.5 | 218 | 41.1 | 29.9 | 3880 | > 2.58 | > 41.1 | – | – | – | – | – | – | – | – |
| Cc1cc(=O)oc2cc(OCc3cc[n+](Cc4cccc(F)c4)cc3)ccc12.[Br-] | 25.9 | 2740 | 50.8 | 99.6 | 41.6 | 106 | 34.3 | 2870 | > 3.48 | > 240 | – | – | – | – | 1.9 | – | – | – |
| Cc1cc(=O)oc2cc(OCc3cc[n+](Cc4ccccc4Br)cc3)ccc12.[Br-] | 36.7 | 480 | 63.7 | 97.6 | 78.1 | 13.2 | 15.1 | 3990 | > 2.5 | 106 | – | – | – | – | – | 8320 | – | – |
| Cc1ccc(C[n+]2ccc(COc3ccc4c(C)cc(=O)oc4c3)cc2)cc1.[Br-] | 136 | 7660 | 58.5 | 99.4 | 250 | 56.3 | 9.05 | 3900 | > 2.56 | > 40 | – | – | – | – | – | – | – | – |
| Cc1cc(=O)oc2cc(OCc3cc[n+](Cc4ccc(F)cc4)cc3)ccc12.[Br-] | 29.1 | 2950 | 49.1 | 94.8 | 36.9 | 101 | – | 10000 | 0.46 | > 271 | – | – | – | – | – | – | 4600 | – |
| Cc1cc(=O)oc2cc(OCc3cc[n+](Cc4ccc([N+](=O)[O-])cc4)cc3)ccc12.[Br-] | 1190 | – | 37.7 | 99.5 | 1080 | > 8.4 | 18.6 | 6890 | > 1.45 | > 9.3 | – | – | – | – | – | – | – | – |
| Cc1cc(=O)oc2cc(OCc3cc[n+](Cc4ccccc4)cc3)ccc12.[Br-] | 380 | 4240 | 39.3 | 97.5 | 352 | 11.2 | 5.04 | – | 6.92 | > 28.4 | – | – | – | – | – | – | – | 34.9 |
| Cc1cc(=O)oc2cc(O)ccc12 [HYMECROMONE] | > 100000 | > 100000 | – | – | – | – | – | – | – | – | – | – | – | – | – | – | – | – |
| Cc1cc(=O)oc2cc(OCc3cc[n+](Cc4ccccc4F)cc3)ccc12.[Br-] | 29.5 | 1640 | 53.7 | 100.8 | 65.3 | 55.6 | 11.5 | 4210 | > 2.37 | > 153 | – | – | – | – | – | – | – | – |
| Cc1ccccc1C[n+]1ccc(COc2ccc3c(C)cc(=O)oc3c2)cc1.[Br-] | 24.9 | 1610 | 55.2 | 97.1 | 35.4 | 64.7 | 13.9 | 3160 | > 3.16 | > 282 | – | – | – | – | 1.9 | – | – | – |
